From US20080254993A1, “Use of abscisic acid analogs to enhance growth control” (priority 2007, published 2008)

Assays:
Kentucky bluegrass = assay: Greenhouse study on Kentucky bluegrass: turfgrass height, clip weight, turfgrass quality (Example 1); type: in vivo
Description: Greenhouse studies were conducted at the Research Farm of Valent BioSciences Corporation (Long Grove, Ill.). Grasses were grown in pots (18 cm in diameter and 18 cm in height) filled with Promix BX (available from Premier Horticulture Inc. Quakertown, Pa.). Grass was irrigated daily by an overhead irrigation system. The irrigation system was set up with multiple Tornado Mist Spray Heads (10 GPH at 40 PSI-Wetted diameter, NDS/Raindrip, Woodland Hills, Calif.). Spray heads were 1-meter apart from each other and 75 cm above grass canopy. Grass was cut with a scissor at 2.5 cm height and fertilizer (1 g/L all purpose fertilizer 20-20-20, available from The Scotts Company, Marysville, Ohio) was applied once per week.
(§1) Chemical solutions were prepared with distilled water. Tween 20 (0.05% v/v) was used as the surfactant when necessary. Trinexapac-ethyl (commercial product Primo Maxx, 11.3% active ingredient) was purchased from Syngenta Crop Protection Inc. (Greensboro, N.C.). ABA analogs, 8′ acetylene-ABA, acid (PBI-524), 8′ acetylene-ABA, ester (PBI-429), 8′ cyclopropane ester (PBI-696), or Tetralone, first carbon tail acetylene, ester (PBI-702), were obtained from Plant Biotechnology Institute, National Research Council of Canada (Saskatoon, Saskatchewan, Canada).
(§2) Chemical solutions were foliar applied to the turfgrass canopy at the rate of 4-gallons/1000 square foot (or 0.163 L/m^−2) immediately after finishing the preparation of solutions. After treatment, turfgrasses were arranged in a randomized complete block experimental design. Turfgrass quality, turfgrass height or clip fresh weight was measured on assigned dates. Turfgrass quality was visually rated on a 0-9 scale based on the color, uniformity, and density of the grass with 0 as the worst and 9 as the best. Turfgrass height was measured as the distance between canopy surface and soil. Clippings were collected form each plot; all plots were cut to a uniform height.
(§3) All experiments were randomized complete block experimental design. Data were analyzed by analysis of variance. Duncan's new multiple range tests at α=0.05 were used for mean separations.
Kentucky bluegrass sod was purchased from Deak sod farms, Inc. (Union Grove, Wis.). Grass was grown in the greenhouse for 94 days for establishment. Turfgrass was treated with one time foliar application of 50 ppm PBI-524, PBI-429, PBI-696 or PBI-702 alone or in combination with 250 ppm trinexapac-ethyl. The turfgrass was cut every 7 days. Turfgrass quality, turfgrass height, and clip weight were measured on days 7 and 35 after treatment.

creeping bentgrass = assay: Golf course green field study on creeping bentgrass with PBI-702: turfgrass height, soil moisture, turf quality (Example 3); type: in vivo, Penncross creeping bentgrass; details: for Soil moisture / Turfgrass height / Turf quality: 50 ppm PBI-702 alone; for Turf quality: visual 0-9 scale, 9 best
Description: Field studies were conducted at the nursery green or the practice green at Countryside golf course (Mundelein, Ill.). Both greens were sand based and growing Penncross creeping bentgrass. Grass was managed with typical Illinois golf course management practices.
as §1, §2, §3
Trinexapac-ethyl (25 ppm) or PBI-702 (50 ppm) were one time foliar applied alone or in combination to creeping bentgrass in the golf course green to investigate their effect on turfgrass quality, growth inhibition and soil moisture.

[1] = 7 days after treatment, 50 ppm ABA analog alone
[2] = 35 days after treatment, 50 ppm ABA analog alone

| SMILES | Clip Weight (Kentucky bluegrass; [1]) | Turfgrass height (Kentucky bluegrass; [1]) | Turfgrass quality (Kentucky bluegrass; 7 days after treatment, 50 ppm ABA analog alone, visual 0-9 scale, 9 best) | Turfgrass height and clip weight compared to the control (in words) (Kentucky bluegrass; 7 days after treatment, trinexapac-ethyl 250 ppm, PBI-524 or PBI-429 50 ppm, alone or combined) | Clip Weight (Kentucky bluegrass; [2]) | Turfgrass height (Kentucky bluegrass; [2]) | Turfgrass height and clip weight (in words) (Kentucky bluegrass; [2]) | Soil moisture (creeping bentgrass; 4 days after treatment) | Turfgrass height (creeping bentgrass; 4 days after treatment) | Soil moisture (creeping bentgrass; 7 days after treatment) | Turfgrass height (creeping bentgrass; 7 days after treatment) | Turf quality (creeping bentgrass; 7 days after treatment) | Reducing growth (in words) (creeping bentgrass; 7 days after treatment, trinexapac-ethyl 25 ppm, PBI-702 50 ppm, alone or combined) | Soil moisture (creeping bentgrass; 38 days after treatment) | Turfgrass height (creeping bentgrass; 38 days after treatment) | Turf quality (creeping bentgrass; 38 days after treatment) |
| --- | --- | --- | --- | --- | --- | --- | --- | --- | --- | --- | --- | --- | --- | --- | --- | --- |
| C#CC1(C)CC(=O)C=C(C)C1(O)C=CC(C)=CC(=O)O (stereo not shown) [PBI-524, 8′ acetylene-ABA, acid] | 0.5 g | 5.8 cm | 6.6 | reduced turfgrass height and clip weight compared to the control | 1.9 g | 8.0 cm | no longer reduced turfgrass height and clip weight | – | – | – | – | – | – | – | – | – |
| COC(=O)/C=C(/C)C#CC1(O)c2ccccc2C(=O)CC1(C)C (stereo not shown) [PBI-702, Tetralone, first carbon tail acetylene, ester] | – | – | – | – | – | – | – | 12.3% | 6.7 mm | 11.5% | 6.5 mm | 7.3 | effective at reducing growth | 12.4% | 5.5 mm | 7.6 |
